Source: US11369651B2, “Uses of FU-LING (Poria cocos) extract and tumulosic acid in protecting muscles” (SINPHAR PHARMACEUTICAL CO., LTD. (DONGSHAN, TAIWAN), priority 2016, dated 2022)

Assays:
Type in all cases: cell-based, mice
[1] = tested on: C2C12 cells; experiment: TNF-α induced muscle cell injury model, intracellular ROS; settings: 4 days in differentiation medium, relative to 0 ng/mL
Protocol: Firstly, C2C12 cells (i.e., myoblasts of mice, purchased from ATCC) were cultured in H-DMEM medium (purchased from Sigma company) until 80% confluence was attained (i.e., the mixed cell monolayer comprised 80% of the area). Thereafter, the cells were separated into four groups, and the mediums of all the groups were replaced by differentiation mediums supplemented with 2% horse serum. TNF-α (purchased from Sigma company) was then added into those mediums to provide final concentrations of 0, 2, 5 or 10 ng/mL respectively. After being co-treated with the differentiation medium and TNF-α for 4 days, the intracellular reactive oxidative stress (ROS) of the C2C12 cells was measured to serve as the index for model evaluation. Accordingly, a TNF-α induced muscle cell injury model was established. Finally, the group that was not treated with TNF-α (i.e., the concentration of TNF-α was 0 ng/mL) served as a basis for calculating the relative intracellular ROS of the other groups. The results are shown in FIG. 1 (all the data are presented as average values±SEM, n=6, analyzed with a t-test, ***p<0.001).

[2] = tested on: MyHC; experiment: Expression of myoblast differentiation marker MyHC in C2C12 cells by Western blot; settings: for Expression level of MyHC (%): 4 days, control group = 100%
Excerpt: (§1) As described above, myogenin and MyHC can be used as markers for myoblast differentiation. To investigate whether FU-LING extract and tumulosic acid have the effect of promoting differentiation of myoblasts, tumulosic acid (purchased from Sinphar pharmaceutical co. ltd), FU-LING meat extract obtained from Example 1 (1-4), FU-LING epidermis extract obtained from Example 1 (1-6), and the FU-LING fermentation extract obtained from Example 1 (1-7) were formulated into the following: (1) tumulosic acid solution, (2) FU-LING meat extract solution, (3) FU-LING epidermis extract solution, and (4) FU-LING fermentation extract solution, respectively, in dimethyl sulfoxide (DMSO; purchased from Sigma Company).
(§2) After 80% confluence of cells was attained in H-DMEM medium, cells were separated into fourteen groups and treated as follows: • (1) Control group: The medium was replaced by a differentiation medium supplemented with 2% horse serum, and the cells were cultured for 4 days. • (2) Meat extract group (3 groups): The medium was replaced by a differentiation medium supplemented with 2% horse serum, and FU-LING meat extract solution was then added into the medium (the final concentration was 0.1, 1 or 10 ng/mL) to perform a co-treatment for 4 days. • (3) Epidermis extract group (4 groups): The medium was replaced by a differentiation medium supplemented with 2% horse serum, and FU-LING epidermis extract solution was then added into the medium (the final concentration was 0.01, 0.1, 0.5 or 1 ng/mL) to perform a co-treatment for 4 days. • (4) Fermentation extract group (3 groups): The medium was replaced by a differentiation medium supplemented with 2% horse serum, and FU-LING fermentation extract solution was then added into the medium (the final concentration was 0.2, 2, or 20 ng/mL) to perform a co-treatment for 4 days. • (5) Tumulosic acid group (4 groups): The medium was replaced by a differentiation medium supplemented with 2% horse serum, and tumulosic acid solution was then added into the medium (the final concentration was 0.01, 0.1, 1 or 10 ng/mL) to perform a co-treatment for 4 days.
(§3) After that, cell proteins in each group were extracted. Thereafter, the expression levels of myoblast differentiation markers (myogenin and MyHC) were detected by Western blot. Finally, the control group served as a basis (e.g., the expression level of the control group was 100%) for calculating the relative expression levels of myogenin and MyHC proteins in each group.

[3] = tested on: myogenin; experiment: Expression of myoblast differentiation marker myogenin in C2C12 cells by Western blot; settings: for Expression level of myogenin (%): 4 days, control group = 100%; for increase of the expression level of myogenin protein: vs control
Excerpt: as §1, §2, §3

| Compound | intracellular reactive oxidative stress (ROS) of C2C12 cells ([1]; 5 ng/mL TNF-α) | intracellular reactive oxidative stress (ROS) of C2C12 cells ([1]; 10 ng/mL TNF-α) | Expression level of MyHC (%) ([2]; 0.01 ng/mL) | Expression level of MyHC (%) ([2]; 0.1 ng/mL) | Expression level of MyHC (%) ([2]; 1 ng/mL) | Expression level of MyHC (%) ([2]; 10 ng/mL) | increase of the expression level of MyHC protein ([2]; 10 μg/ml, vs control) | Expression level of myogenin (%) ([3]; 0.01 ng/mL) | Expression level of myogenin (%) ([3]; 0.1 ng/mL) | Expression level of myogenin (%) ([3]; 1 ng/mL) | Expression level of myogenin (%) ([3]; 10 ng/mL) | increase of the expression level of myogenin protein ([3]; 10 μg/ml) | increase of the expression level of myogenin protein ([3]; 0.01-0.1 μg/ml) |
| --- | --- | --- | --- | --- | --- | --- | --- | --- | --- | --- | --- | --- | --- |
| TNF-α | increased | significantly increased |  |  |  |  |  |  |  |  |  |  |  |
| C=C(CC[C@@H](C(=O)O)[C@H]1[C@H](O)C[C@@]2(C)C3=C(CC[C@]12C)[C@@]1(C)CC[C@H](O)C(C)(C)[C@@H]1CC3)C(C)C [Tumulosic acid, tumulosic acid] |  |  | 90 | 80 | 70 | 180 | about 80% | 130 | 130 | 160 | 490 | about 390% | about 30% |
